This is an account of results in PubChem BioAssay AID330 (DTP/NCI, 2004).

For this experiment, the system named is P388 leukemia ip, CD2F1 mice, survival T/C. In words: NCI In Vivo Anticancer Drug Screen. Data for tumor model P388 Leukemia (intraperitoneal) in CD2F1 (CDF1) mice. The settings on record: endpoint: median survival time, higher = longer survival. The method, boiled down:
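Mice carrying the transplanted tumor received test compound or vehicle. Survival was recorded in each group, and the value is the treated-group measurement divided by that of the vehicle-treated control group.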

Where [1] appears, read: dose: 50.0 mg/kg/injection, schedule: Q01DX009 (ip), vehicle: Klucel (hydroxypropylcellulose) (HPC).
The mark [2] stands for this setting: dose: 100.0 mg/kg/injection, schedule: Q01DX009 (ip), vehicle: Klucel (hydroxypropylcellulose) (HPC).
Setting [3] is: dose: 200.0 mg/kg/injection, schedule: Q01DX009 (ip), vehicle: Klucel (hydroxypropylcellulose) (HPC).
[4] abbreviates: dose: 50.0 mg/kg/injection, schedule: Q01DX009 (ip), vehicle: saline with Tween-80.
[5] abbreviates: dose: 100.0 mg/kg/injection, schedule: Q01DX009 (ip), vehicle: saline with Tween-80.
[6] abbreviates: dose: 200.0 mg/kg/injection, schedule: Q01DX009 (ip), vehicle: saline with Tween-80.
[7] abbreviates: dose: 50.0 mg/kg/injection, schedule: Q01DX005 (ip), vehicle: Klucel (hydroxypropylcellulose) (HPC).
Where [8] appears, read: dose: 100.0 mg/kg/injection, schedule: Q01DX005 (ip), vehicle: Klucel (hydroxypropylcellulose) (HPC).
Setting [9] is: dose: 50.0 mg/kg/injection, schedule: Q01DX005 (ip), vehicle: saline with Tween-80.
[10] abbreviates: dose: 100.0 mg/kg/injection, schedule: Q01DX005 (ip), vehicle: saline with Tween-80.

Several values for one entry are separate records, joined by “and”; a condition that tells them apart may be missing. Equal entries are not always repeated. Inconclusive results and toxic doses are left out.

Regarding `CC(C)(C)P(c1ccccc1)C(C)(C)C`, the T/C (dose: 100.0 mg/kg/injection, schedule: Q04DX002 (ip), vehicle: saline with Tween-80) was 103 % of control.

Turning to `CC(C)c1ccc(C2NC(=S)NC(=O)C2C#N)cc1` (stereo not drawn), the T/C was 101 % of control (dose: 50.0 mg/kg/injection, schedule: Q01DX009 (ip), vehicle: saline); 100 % of control (dose: 100.0 mg/kg/injection, schedule: Q01DX009 (ip), vehicle: saline); 98 % of control (dose: 200.0 mg/kg/injection, schedule: Q01DX009 (ip), vehicle: saline).

For the compound `Cc1ccc(N=Cc2cccs2)c(Br)c1`, the T/C was 100 % of control under setting [1], 118 % of control under setting [2] and 100 % of control under setting [3].

Take `O=C(O)C1=C(/C=C(/c2ccccc2)c2ccc(Cl)cc2)OCCC1`: the T/C is 90 % of control under setting [4], 94 % of control under setting [5] and 105 % of control under setting [6].

On to `COc1c(Cl)c(=O)oc2ccc(Cl)cc12`, for which the T/C (dose: 6.25 mg/kg/injection, schedule: Q01DX009 (ip), vehicle: Klucel (hydroxypropylcellulose) (HPC)) was 104 % of control; the T/C (dose: 12.5 mg/kg/injection, schedule: Q01DX009 (ip), vehicle: Klucel (hydroxypropylcellulose) (HPC)) was 99 % of control; the T/C (dose: 25.0 mg/kg/injection, schedule: Q01DX009 (ip), vehicle: Klucel (hydroxypropylcellulose) (HPC)) was 97 % of control; the T/C under setting [1] was 104 % of control.

For `Cc1c(O)c2c(c(O)c1Cc1ccc(C#N)cc1)C(=O)c1ccccc1C2=O`, the T/C by setting is: (dose: 6.25 mg/kg/injection, schedule: Q01DX009 (ip), vehicle: saline with Tween-80) 94 % of control; (dose: 12.5 mg/kg/injection, schedule: Q01DX009 (ip), vehicle: saline with Tween-80) 91 % of control; (dose: 25.0 mg/kg/injection, schedule: Q01DX009 (ip), vehicle: saline with Tween-80) 90 % of control; under setting [4], 91 % of control; under setting [3], 89 % of control.

In the case of `O=S(=O)(Nc1ccccn1)c1ccc(N(CCCl)CCCl)cc1`, the T/C was 95 % of control (dose: 100.0 mg/kg/injection, schedule: Q04DX003 (ip), vehicle: saline with Tween-80) and 95 % of control (dose: 200.0 mg/kg/injection, schedule: Q04DX003 (ip), vehicle: saline with Tween-80).

In the case of `CCN(CC)CCOC(=O)C(OCCCc1ccccc1)(c1ccccc1)c1ccccc1`, the T/C is, setting by setting: under setting [7], 111 % of control; under setting [8], 112 % of control.

Consider `COc1cc(OC)c(C(=O)/C=C/c2ccncc2)cc1C(=O)O`, for which the T/C by setting is: (dose: 50.0 mg/kg/injection, schedule: Q01DX009 (ip), vehicle: suspension in saline) 114 % of control and 119 % of control; (dose: 100.0 mg/kg/injection, schedule: Q01DX009 (ip), vehicle: suspension in saline) 123 % of control and 124 % of control.

As to `COc1cccc2c1C(=N)c1c(O)c3c(c(O)c1C2=O)C[C@@](O)(C(C)=O)C[C@@H]3OC1CC(N)C(O)C(C)O1` (stereo partly drawn), the T/C by setting is: (dose: 0.5 mg/kg/injection, schedule: Q01DX009 (ip), vehicle: water) 153 % of control; (dose: 0.75 mg/kg/injection, schedule: Q04DX003 (ip), vehicle: water) 112 % of control; (dose: 1.0 mg/kg/injection, schedule: Q01DX009 (ip), vehicle: saline) 158 % of control; (dose: 1.0 mg/kg/injection, schedule: Q01DX009 (ip), vehicle: water) 153 % of control and 175 % of control; (dose: 1.5 mg/kg/injection, schedule: Q04DX003 (ip), vehicle: water) 118 % of control; (dose: 2.0 mg/kg/injection, schedule: Q01DX009 (ip), vehicle: saline) 153 % of control. Moreover, the T/C is 155 % of control and 186 % of control (dose: 2.0 mg/kg/injection, schedule: Q01DX009 (ip), vehicle: water); 124 % of control (dose: 3.0 mg/kg/injection, schedule: Q04DX003 (ip), vehicle: water); 150 % of control (dose: 3.24 mg/kg/injection, schedule: Q04DX003 (ip), vehicle: water); 150 % of control and 157 % of control (dose: 4.0 mg/kg/injection, schedule: Q01DX009 (ip), vehicle: water); 161 % of control (dose: 5.4 mg/kg/injection, schedule: Q04DX003 (ip), vehicle: water); 123 % of control and 124 % of control (dose: 6.0 mg/kg/injection, schedule: Q04DX003 (ip), vehicle: water). Besides, the T/C by setting is: (dose: 8.0 mg/kg/injection, schedule: Q01DX009 (ip), vehicle: saline) 91 % of control; (dose: 8.0 mg/kg/injection, schedule: Q01DX009 (ip), vehicle: water) 88 % of control and 94 % of control; (dose: 9.0 mg/kg/injection, schedule: Q04DX003 (ip), vehicle: water) 157 % of control; (dose: 12.0 mg/kg/injection, schedule: Q04DX003 (ip), vehicle: water) 102 % of control; (dose: 15.0 mg/kg/injection, schedule: Q04DX003 (ip), vehicle: water) 98 % of control; (dose: 24.0 mg/kg/injection, schedule: Q04DX003 (ip), vehicle: water) 123 % of control. Further, the T/C is 116 % of control (dose: 48.0 mg/kg/injection, schedule: Q04DX003 (ip), vehicle: water) and 98 % of control (dose: 96.0 mg/kg/injection, schedule: Q04DX003 (ip), vehicle: water).

Consider `CCCCCCCCCCCCCCCCCCSc1c(OC)c(OC(C)=O)c(OC)c(OC)c1OC(C)=O`, for which the T/C was 87 % of control (dose: 4.0 mg/kg/injection, schedule: Q01DX009 (ip), vehicle: Klucel (hydroxypropylcellulose) (HPC)); 98 % of control (dose: 8.0 mg/kg/injection, schedule: Q01DX009 (ip), vehicle: Klucel (hydroxypropylcellulose) (HPC)); 96 % of control (dose: 16.0 mg/kg/injection, schedule: Q01DX009 (ip), vehicle: Klucel (hydroxypropylcellulose) (HPC)); 98 % of control (dose: 32.0 mg/kg/injection, schedule: Q01DX009 (ip), vehicle: Klucel (hydroxypropylcellulose) (HPC)).

As for `Cc1ccc(NCc2ccccn2)nc1`, the T/C under setting [9] was 99 % of control and the T/C under setting [10] is 89 % of control.

Consider `Cc1ccc(S(=O)(=O)N/N=C/c2ccc(Cl)cc2O)cc1`, for which the T/C by setting is: (dose: 12.5 mg/kg/injection, schedule: Q01DX005 (ip), vehicle: distilled water + Tween-80) 102 % of control; (dose: 25.0 mg/kg/injection, schedule: Q01DX005 (ip), vehicle: distilled water + Tween-80) 99 % of control; (dose: 50.0 mg/kg/injection, schedule: Q01DX005 (ip), vehicle: distilled water + Tween-80) 100 % of control; (dose: 100.0 mg/kg/injection, schedule: Q01DX005 (ip), vehicle: distilled water + Tween-80) 100 % of control; (dose: 200.0 mg/kg/injection, schedule: Q01DX005 (ip), vehicle: distilled water + Tween-80) 100 % of control.

As to `NCCCCNC(c1ccccc1)C(O)c1ccccc1` (stereo not drawn), the T/C under setting [1] is 100 % of control and the T/C under setting [2] was 99 % of control.

Regarding `ClCCN(CCCl)c1ccc(/C=N/Nc2ccnc3cc(Cl)ccc23)cc1`, the T/C is, setting by setting: under setting [4], 95 % of control; under setting [5], 101 % of control; under setting [6], 93 % of control.

`Cc1ccc(S(=O)(=O)NCC(Cl)C#N)cc1` (stereo not drawn): the T/C under setting [7] was 105 % of control; the T/C under setting [8] is 106 % of control; the T/C (dose: 200.0 mg/kg/injection, schedule: Q01DX005 (ip), vehicle: Klucel (hydroxypropylcellulose) (HPC)) was 103 % of control; the T/C (dose: 400.0 mg/kg/injection, schedule: Q01DX005 (ip), vehicle: Klucel (hydroxypropylcellulose) (HPC)) was 102 % of control.

For `COc1ccc(S(=O)(=O)N/N=C\c2cc([N+](=O)[O-])cc([N+](=O)[O-])c2O)cc1OC`, the T/C is 99 % of control under setting [9]; 100 % of control under setting [10]; 99 % of control (dose: 200.0 mg/kg/injection, schedule: Q01DX005 (ip), vehicle: saline with Tween-80).
